For 14 molecules, DC50 and Dmax results are on record in patent publication US12448389B2, “BRM targeting compounds and associated methods of use” (Prelude Therapeutics Incorporated, priority 2020, dated 2025).

SMILES strings stand for the structures.

The target in one assay is T1, SMARCA4-HiBiT (Homo sapiens, UniProt P51532).
T1 construct: SMARCA4-HiBiT knock-in Hela monoclonal cell (CS3023226); host or cells: HeLa monoclonal knock-in line (CRISPR HiBiT knock-in at the endogenous locus, heterozygous)
T1 sequence (P51532 whole entry): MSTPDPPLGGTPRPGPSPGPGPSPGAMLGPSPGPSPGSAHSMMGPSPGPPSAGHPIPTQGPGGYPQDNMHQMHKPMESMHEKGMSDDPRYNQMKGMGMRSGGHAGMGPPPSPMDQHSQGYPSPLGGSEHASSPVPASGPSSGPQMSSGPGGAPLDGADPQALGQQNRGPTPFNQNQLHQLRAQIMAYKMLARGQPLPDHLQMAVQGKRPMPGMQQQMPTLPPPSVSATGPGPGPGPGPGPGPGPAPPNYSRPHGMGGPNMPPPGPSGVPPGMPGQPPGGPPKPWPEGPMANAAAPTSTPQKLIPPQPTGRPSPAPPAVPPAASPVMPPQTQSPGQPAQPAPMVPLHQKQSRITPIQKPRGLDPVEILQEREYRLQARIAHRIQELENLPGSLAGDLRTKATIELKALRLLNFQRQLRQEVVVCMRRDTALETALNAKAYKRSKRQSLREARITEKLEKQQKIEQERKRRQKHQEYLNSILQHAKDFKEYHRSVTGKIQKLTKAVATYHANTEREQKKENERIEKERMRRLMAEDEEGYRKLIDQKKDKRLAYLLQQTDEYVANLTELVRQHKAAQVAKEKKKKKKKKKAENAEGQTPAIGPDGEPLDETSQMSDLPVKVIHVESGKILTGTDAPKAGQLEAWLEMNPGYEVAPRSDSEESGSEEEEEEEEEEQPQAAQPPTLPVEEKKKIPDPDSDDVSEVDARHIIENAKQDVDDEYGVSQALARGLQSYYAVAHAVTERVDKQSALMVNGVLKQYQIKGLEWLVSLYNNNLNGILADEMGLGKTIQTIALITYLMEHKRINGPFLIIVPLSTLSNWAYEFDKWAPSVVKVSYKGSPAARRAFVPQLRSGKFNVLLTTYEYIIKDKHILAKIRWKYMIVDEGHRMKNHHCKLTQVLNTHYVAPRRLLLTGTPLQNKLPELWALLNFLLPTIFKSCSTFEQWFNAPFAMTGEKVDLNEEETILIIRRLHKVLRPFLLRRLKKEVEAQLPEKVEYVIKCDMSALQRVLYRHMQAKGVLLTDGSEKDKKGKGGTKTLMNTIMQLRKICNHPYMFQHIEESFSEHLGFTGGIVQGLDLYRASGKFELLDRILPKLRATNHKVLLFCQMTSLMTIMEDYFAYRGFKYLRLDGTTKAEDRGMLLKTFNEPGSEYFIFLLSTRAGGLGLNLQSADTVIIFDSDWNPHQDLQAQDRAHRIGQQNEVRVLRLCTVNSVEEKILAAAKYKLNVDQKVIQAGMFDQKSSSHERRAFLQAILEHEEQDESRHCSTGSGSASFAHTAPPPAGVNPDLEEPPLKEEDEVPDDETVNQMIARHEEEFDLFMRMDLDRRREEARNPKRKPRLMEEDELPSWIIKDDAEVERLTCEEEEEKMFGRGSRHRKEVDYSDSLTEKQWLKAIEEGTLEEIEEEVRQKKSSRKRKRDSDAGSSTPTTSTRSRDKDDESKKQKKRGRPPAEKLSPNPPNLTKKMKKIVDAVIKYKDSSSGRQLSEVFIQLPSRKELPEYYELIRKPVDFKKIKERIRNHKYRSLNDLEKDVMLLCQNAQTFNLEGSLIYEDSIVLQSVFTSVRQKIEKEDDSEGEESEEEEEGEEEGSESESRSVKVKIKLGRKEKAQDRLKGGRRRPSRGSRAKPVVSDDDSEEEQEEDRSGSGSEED
Put plainly: SMARCA4 HiBiT degradation assay in HeLa cells. As to conditions: 18 hours incubation; for DC50: read-out: HeLa-HiBit-SM4 DC50; for Dmax: HeLa, read-out: HeLa-HiBit-SM4 Dmax (%). The class given is cell-based. The procedure, abridged: (§1)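 HeLa monoclonal lines with heterozygous HiBiT knock-in were seeded at 2500 cells/well in EMEM with 10% FBS and treated with compound for 18 h at 37 °C. Remaining tagged protein was measured by Nano-Glo HiBiT lytic luminescence after 30–60 min at RT, and values came from curve fitting.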
A general note: The HiBiT peptide binds its large partner to form an active luciferase.

The target in the next assay is T2, SMARCA2-HiBiT (Homo sapiens, UniProt P51531).
T2 construct: SMARCA2-HiBiT knock-in Hela monoclonal cell (CS302366); host or cells: HeLa monoclonal knock-in line (CRISPR HiBiT knock-in at the endogenous locus, heterozygous)
T2 sequence (P51531 whole entry): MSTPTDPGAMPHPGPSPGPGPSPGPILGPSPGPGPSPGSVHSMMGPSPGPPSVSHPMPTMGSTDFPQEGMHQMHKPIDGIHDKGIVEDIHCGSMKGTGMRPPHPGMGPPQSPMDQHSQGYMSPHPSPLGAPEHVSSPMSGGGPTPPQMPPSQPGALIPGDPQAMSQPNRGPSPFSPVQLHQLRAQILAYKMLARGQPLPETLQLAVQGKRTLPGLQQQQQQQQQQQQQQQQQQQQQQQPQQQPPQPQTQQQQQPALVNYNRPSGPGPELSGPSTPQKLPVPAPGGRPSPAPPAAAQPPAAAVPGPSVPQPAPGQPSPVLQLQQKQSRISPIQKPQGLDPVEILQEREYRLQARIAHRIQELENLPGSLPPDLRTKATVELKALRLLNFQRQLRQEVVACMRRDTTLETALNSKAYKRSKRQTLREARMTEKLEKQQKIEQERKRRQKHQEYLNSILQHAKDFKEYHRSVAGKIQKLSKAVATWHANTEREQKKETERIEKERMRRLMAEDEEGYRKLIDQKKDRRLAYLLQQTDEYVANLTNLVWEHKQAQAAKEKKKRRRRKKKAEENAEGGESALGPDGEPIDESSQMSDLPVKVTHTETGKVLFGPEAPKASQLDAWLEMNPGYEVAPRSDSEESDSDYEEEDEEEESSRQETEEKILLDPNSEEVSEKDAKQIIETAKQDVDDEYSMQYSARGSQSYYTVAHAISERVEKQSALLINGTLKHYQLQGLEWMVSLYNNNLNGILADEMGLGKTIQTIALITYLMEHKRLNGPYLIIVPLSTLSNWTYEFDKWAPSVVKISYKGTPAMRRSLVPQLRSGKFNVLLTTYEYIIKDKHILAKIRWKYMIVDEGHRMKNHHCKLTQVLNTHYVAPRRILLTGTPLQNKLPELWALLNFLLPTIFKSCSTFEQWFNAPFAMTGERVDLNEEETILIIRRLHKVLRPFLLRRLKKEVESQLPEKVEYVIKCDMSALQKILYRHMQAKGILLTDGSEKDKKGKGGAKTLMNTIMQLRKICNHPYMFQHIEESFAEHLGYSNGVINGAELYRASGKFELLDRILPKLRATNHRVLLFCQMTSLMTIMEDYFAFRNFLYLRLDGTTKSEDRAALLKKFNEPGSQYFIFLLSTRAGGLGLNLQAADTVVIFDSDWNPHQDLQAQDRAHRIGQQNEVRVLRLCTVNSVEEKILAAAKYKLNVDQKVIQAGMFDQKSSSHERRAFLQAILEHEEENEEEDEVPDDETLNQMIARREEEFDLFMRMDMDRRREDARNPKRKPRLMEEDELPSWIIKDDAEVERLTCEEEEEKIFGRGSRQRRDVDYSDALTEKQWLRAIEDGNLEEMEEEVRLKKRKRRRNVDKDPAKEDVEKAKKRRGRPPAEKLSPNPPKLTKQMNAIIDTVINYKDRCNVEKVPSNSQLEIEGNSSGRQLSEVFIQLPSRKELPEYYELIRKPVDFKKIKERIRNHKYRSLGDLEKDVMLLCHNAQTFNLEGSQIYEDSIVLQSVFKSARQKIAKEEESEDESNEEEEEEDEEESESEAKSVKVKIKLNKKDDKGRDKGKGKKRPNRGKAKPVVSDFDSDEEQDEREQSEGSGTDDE
Put plainly: SMARCA2 HiBiT degradation assay in HeLa cells. Type of assay: cell-based. The note with it: 18 hours incubation; for DC50: read-out: HeLa_HiBit-SM2 DC50; for Dmax: HeLa, read-out: HeLa-HiBit-SM2 Dmax (%). The procedure, abridged:
as §1

One may read the DC50 as the concentration at which degradation of the target reaches its halfway point. A word on the Dmax: it is the greatest extent of degradation seen. As for `CN1CCN(c2ccc3c(c2)C(=O)N(C2CCC(=O)NC2=O)C3=O)CC1CN1C[C@@H]2[C@H](C1)[C@H]2CN1CCN2c3cc(-c4ccccc4O)nnc3NC[C@H]2C1` (stereo partly drawn) [Example 56, 2-(2,6-dioxopiperidin-3-yl)-5-(3-(((1R,5S,6r)-6-(((S)-2-(2-hydroxyphenyl)-5,6,6a,7,9,10-hexahydro-8H-pyrazino[1′,2′:4,5]pyrazino[2,3-c]pyridazin-8-yl)methyl)-3-azabicyclo[3.1.0]hexan-3-yl)methyl)-4-methylpiperazin-1-yl)isoindoline-1,3-dione], at SMARCA4-HiBiT, the 50% degradation concentration (DC50) was 10 to 100 nM and the Dmax lay in the range of 75 to 85%. On SMARCA2-HiBiT, the DC50 was below 10 nM and the Dmax lay in the range of 50 to 75%.

Take `C[C@H]1CN2c3cc(-c4ccccc4O)nnc3NC[C@H]2CN1C[C@H]1[C@@H]2CN(CC3CCN(c4ccc5c(c4)CN(C4CCC(=O)NC4=O)C5=O)CC3)C[C@@H]21` (stereo partly drawn) [Example 57, 3-(5-(4-(((1R,5S,6r)-6-(((6aS,9S)-2-(2-hydroxyphenyl)-9-methyl-5,6,6a,7,9,10-hexahydro-8H-pyrazino[1′,2′:4,5]pyrazino[2,3-c]pyridazin-8-yl)methyl)-3-azabicyclo[3.1.0]hexan-3-yl)methyl)piperidin-1-yl)-1-oxoisoindolin-2-yl)piperidine-2,6-dione]: at SMARCA4-HiBiT, the DC50 is below 10 nM and the Dmax was at most 50%. In addition, on SMARCA2-HiBiT, the half-maximal degradation concentration (DC50) is below 10 nM and the Dmax was in the range of 50 to 75%.

For `O=C1CCC(N2C(=O)c3ccc(N4Cc5cnc(N6C[C@@H]7[C@@H](CN8CCN9c%10cc(-c%11ccccc%11O)nnc%10NC[C@H]9C8)[C@@H]7C6)nc5C4)cc3C2=O)C(=O)N1` (stereo partly drawn) [Example 58, 2-(2,6-dioxopiperidin-3-yl)-5-(2-((1R,5S,6s)-6-(((S)-2-(2-hydroxyphenyl)-5,6,6a,7,9,10-hexahydro-8H-pyrazino[1′,2′:4,5]pyrazino[2,3-c]pyridazin-8-yl)methyl)-3-azabicyclo[3.1.0]hexan-3-yl)-5,7-dihydro-6H-pyrrolo[3,4-d]pyrimidin-6-yl) isoindoline-1,3-dione], on SMARCA4-HiBiT, the DC50 lay within 10 to 100 nM and the Dmax was at most 50%. Also, on SMARCA2-HiBiT, the 50% degradation concentration (DC50) is below 10 nM and the Dmax lay in the range of 50 to 75%.

On to `CC1(CN2C[C@@H]3[C@@H](CN4CCN5c6cc(-c7ccccc7O)nnc6NC[C@H]5C4)[C@@H]3C2)CN(c2ccc3c(c2)C(=O)N(C2CCC(=O)NC2=O)C3=O)CCO1` (stereo partly drawn) [Example 59, 2-(2,6-dioxopiperidin-3-yl)-5-(2-(((1R,5S,6s)-6-(((S)-2-(2-hydroxyphenyl)-5,6,6a,7,9,10-hexahydro-8H-pyrazino[1′,2′:4,5]pyrazino[2,3-c]pyridazin-8-yl)methyl)-3-azabicyclo[3.1.0]hexan-3-yl)methyl)-2-methylmorpholino)isoindoline-1,3-dione], for which the 50% degradation concentration (DC50) was 10 to 100 nM on SMARCA4-HiBiT and below 10 nM at SMARCA2-HiBiT. Further, the Dmax on SMARCA4-HiBiT and on SMARCA2-HiBiT was 75 to 85% in each case.

`O=C1CCC(N2C(=O)c3ccc(N4CCC(CN5CCc6cnc(N7CCN8c9cc(-c%10ccccc%10O)nnc9NC[C@H]8C7)nc6C5)CC4)cc3C2=O)C(=O)N1` (stereo partly drawn) [Example 60, 2-(2,6-dioxopiperidin-3-yl)-5-(4-((2-((S)-2-(2-hydroxyphenyl)-5,6,6a,7,9,10-hexahydro-8H-pyrazino[1′,2′:4,5]pyrazino[2,3-c]pyridazin-8-yl)-5,8-dihydropyrido[3,4-d]pyrimidin-7(6H)-yl)methyl)piperidin-1-yl) isoindoline-1,3-dione]: the DC50 at SMARCA4-HiBiT and on SMARCA2-HiBiT was below 10 nM each time. For the same molecule, the Dmax on SMARCA4-HiBiT and at SMARCA2-HiBiT was at most 50% in each case.

For the molecule `O=C1CCC(N2Cc3ccc(N4CCC(CN5Cc6cnc(N7CCN8c9cc(-c%10ccccc%10O)nnc9NC[C@H]8C7)nc6C5)CC4)cc3C2=O)C(=O)N1` (stereo partly drawn) [Example 61, 3-(6-(4-((2-((S)-2-(2-hydroxyphenyl)-5,6,6a,7,9,10-hexahydro-8H-pyrazino[1′,2′:4,5]pyrazino[2,3-c]pyridazin-8-yl)-5,7-dihydro-6H-pyrrolo[3,4-d]pyrimidin-6-yl)methyl)piperidin-1-yl)-1-oxoisoindolin-2-yl)piperidine-2,6-dione], the 50% degradation concentration (DC50) at SMARCA4-HiBiT and on SMARCA2-HiBiT was below 10 nM each time. Moreover, the Dmax at SMARCA4-HiBiT and at SMARCA2-HiBiT was at most 50% throughout.

Take `O=C1CCC(N2Cc3cc(CCN4CCC(N5CCC(N6CCN7c8cc(-c9ccccc9O)nnc8NC[C@H]7C6)CC5)CC4)ccc3C2=O)C(=O)N1` (stereo partly drawn) [Example 62, 3-(5-(2-(4-((S)-2-(2-hydroxyphenyl)-5,6,6a,7,9,10-hexahydro-8H-pyrazino[1′,2′:4,5]pyrazino[2,3-c]pyridazin-8-yl)-[1,4′-bipiperidin]-1′-yl)ethyl)-1-oxoisoindolin-2-yl)piperidine-2,6-dione]: on SMARCA4-HiBiT, the DC50 was below 10 nM and the greatest degradation seen (Dmax) was above 85%. Also, on SMARCA2-HiBiT, the 50% degradation concentration (DC50) is below 10 nM and the maximal degradation (Dmax) is above 85%.

Regarding `O=C1CCC(N2Cc3cc(CN4CCC(N5CCC(N6CCN7c8cc(-c9ccccc9O)nnc8NC[C@H]7C6)CC5)CC4)ccc3C2=O)C(=O)N1` (stereo partly drawn) [Example 63, 3-(5-((4-((S)-2-(2-hydroxyphenyl)-5,6,6a,7,9,10-hexahydro-8H-pyrazino[1′,2′:4,5]pyrazino[2,3-c]pyridazin-8-yl)-[1,4′-bipiperidin]-1′-yl)methyl)-1-oxoisoindolin-2-yl)piperidine-2,6-dione], the DC50 on SMARCA4-HiBiT and on SMARCA2-HiBiT was below 10 nM in each case. Moreover, the greatest degradation seen (Dmax) at SMARCA4-HiBiT and on SMARCA2-HiBiT was above 85% each time.

Consider `O=C1CCC(N2Cc3cc(CN4CCC(CCc5cnc(N6CCN7c8cc(-c9ccccc9O)nnc8NC[C@H]7C6)nc5)CC4)ccc3C2=O)C(=O)N1` (stereo partly drawn) [Example 64, 3-(5-((4-(2-(2-((S)-2-(2-hydroxyphenyl)-5,6,6a,7,9,10-hexahydro-8H-pyrazino[1′,2′:4,5]pyrazino[2,3-c]pyridazin-8-yl)pyrimidin-5-yl)ethyl)piperidin-1-yl)methyl)-1-oxoisoindolin-2-yl)piperidine-2,6-dione], for which the 50% degradation concentration (DC50) at SMARCA4-HiBiT and at SMARCA2-HiBiT was below 10 nM throughout. The greatest degradation seen (Dmax) on SMARCA4-HiBiT is 75 to 85%; on SMARCA2-HiBiT, above 85%.

With `O=C1CCC(N2Cc3cc(CN4CCC(CCCN5CCC(N6CCN7c8cc(-c9ccccc9O)nnc8NC[C@H]7C6)CC5)CC4)ccc3C2=O)C(=O)N1` (stereo partly drawn) [Example 65, 3-(5-((4-(3-(4-((S)-2-(2-hydroxyphenyl)-5,6,6a,7,9,10-hexahydro-8H-pyrazino[1′,2′:4,5]pyrazino[2,3-c]pyridazin-8-yl)piperidin-1-yl)propyl)piperidin-1-yl)methyl)-1-oxoisoindolin-2-yl)piperidine-2,6-dione], at SMARCA4-HiBiT, the DC50 is below 10 nM and the Dmax was above 85%. Besides, at SMARCA2-HiBiT, the half-maximal degradation concentration (DC50) is below 10 nM and the Dmax was above 85%.

Consider `O=C1CCC(N2C(=O)c3cccc(N4CCC(N5CCC(N6CCN7c8cc(-c9ccccc9O)nnc8NC[C@H]7C6)CC5)CC4)c3C2=O)C(=O)N1` (stereo partly drawn) [Example 66, 2-(2,6-dioxopiperidin-3-yl)-4-(4-((S)-2-(2-hydroxyphenyl)-5,6,6a,7,9,10-hexahydro-8H-pyrazino[1′,2′:4,5]pyrazino[2,3-c]pyridazin-8-yl)-[1,4′-bipiperidin]-1′-yl) isoindoline-1,3-dione], for which the half-maximal degradation concentration (DC50) on SMARCA4-HiBiT and at SMARCA2-HiBiT was below 10 nM throughout. Moreover, the Dmax at SMARCA4-HiBiT and at SMARCA2-HiBiT was above 85% in each case.

In the case of `O=C1CCC(N2C(=O)c3cccc(N4CCC(OCCN5CCC(N6CCN7c8cc(-c9ccccc9O)nnc8NC[C@H]7C6)CC5)CC4)c3C2=O)C(=O)N1` (stereo partly drawn) [Example 67, 2-(2,6-dioxopiperidin-3-yl)-4-(4-(2-(4-((S)-2-(2-hydroxyphenyl)-5,6,6a,7,9,10-hexahydro-8H-pyrazino[1′,2′:4,5]pyrazino[2,3-c]pyridazin-8-yl)piperidin-1-yl)ethoxy)piperidin-1-yl)isoindoline-1,3-dione], the DC50 on SMARCA4-HiBiT and on SMARCA2-HiBiT was below 10 nM in each case. For the same molecule, the Dmax at SMARCA4-HiBiT and at SMARCA2-HiBiT was 50 to 75% throughout.

As to `CN(CCN1CCC(N2CCN3c4cc(-c5ccccc5O)nnc4NC[C@H]3C2)CC1)c1cccc2c1C(=O)N(C1CCC(=O)NC1=O)C2=O` (stereo partly drawn) [Example 68, 2-(2,6-dioxopiperidin-3-yl)-4-((2-(4-((S)-2-(2-hydroxyphenyl)-5,6,6a,7,9,10-hexahydro-8H-pyrazino[1′,2′:4,5]pyrazino[2,3-c]pyridazin-8-yl)piperidin-1-yl)ethyl)(methyl)amino)isoindoline-1,3-dione], at SMARCA4-HiBiT, the half-maximal degradation concentration (DC50) lay within 10 to 100 nM and the Dmax is above 85%. Further, at SMARCA2-HiBiT, the 50% degradation concentration (DC50) is below 10 nM and the Dmax is above 85%.

Take `O=C1CCC(N2C(=O)c3cccc(N4CCN(CCCN5CCC(N6CCN7c8cc(-c9ccccc9O)nnc8NC[C@H]7C6)CC5)CC4)c3C2=O)C(=O)N1` (stereo partly drawn) [Example 69, 2-(2,6-dioxopiperidin-3-yl)-4-(4-(3-(4-((S)-2-(2-hydroxyphenyl)-5,6,6a,7,9,10-hexahydro-8H-pyrazino[1′,2′:4,5]pyrazino[2,3-c]pyridazin-8-yl)piperidin-1-yl)propyl)piperazin-1-yl)isoindoline-1,3-dione]: the DC50 on SMARCA4-HiBiT and on SMARCA2-HiBiT was below 10 nM each time. The Dmax on SMARCA4-HiBiT and at SMARCA2-HiBiT was above 85% each time.
